# Values of other authors as cited in patent US20060234348A1, “Method of production of RNA polymerase protein” (priority 2005, published 2006).
# Biological target: T1, RNase A (Bos taurus, UniProt P61823)
# T1 sequence (P61823 27-150): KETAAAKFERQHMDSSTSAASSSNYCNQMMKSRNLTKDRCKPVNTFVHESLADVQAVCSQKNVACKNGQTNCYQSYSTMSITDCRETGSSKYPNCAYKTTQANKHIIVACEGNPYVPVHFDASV
# Details: RNase A 10 μg/ml, 4 mM DTT, 4° C. for 20 minutes
smiles,measurement,value
"O[C@H](CS)[C@H](O)CS (racemic) [DTT, dithiothreitol]",conversion of polyribosomes to monoribosomes by RNase A,reduced the conversion of polyribosomes to monoribosomes
